From patent publication US11813239B2, “Compositions and methods for improving cardiac structure and/or function” (Wisconsin Alumni Research Foundation, priority 2020, dated 2023)

Columns and labels:
SDH = SDH (Homo sapiens, UniProt O14521+P21912+Q99643); conditions: literature reference 21 (Miyadera et al. 2003); cited from earlier work
[1] = test system: postnatal (P7) mouse heart following myocardial infarction; assay: Echocardiography after myocardial infarction in P7 juvenile mice; conditions: for % EF (Ejection Fraction) / % FS (Fractional Shortening) / LV Mass (Left Ventricular Mass, Anatomical Weight) / LV Vol; d (Left Ventricular Volume; diastole) / LV Vol; s (Left Ventricular Volume; systole) / LVAWD (Left Ventricle Anterior Wall Thickness Diastole) / LVAWS (Left Ventricle Anterior Wall Thickness Systole) / LVIDD (Left Ventricle Internal Diameter Diastole) / LVIDS (Left Ventricle Internal Diameter Systole) / LVPWD (Left Ventricle Posterior Wall Thickness Diastole) / LVPWS (Left Ventricle Posterior Wall Thickness Systole): Atpenin A5 100 μg/kg daily, mean ± SE
Description: (§1) Neonatal mice at postnatal day 1 (P1) or day 7 (P7) were used for myocardial infarction (MI) surgery. Neonatal mice were subjected to MI surgeries as previously described. Briefly, neonates were anesthetized by hypothermia on ice. Lateral thoracotomy at the fourth intercostal space was performed by blunt dissection of the intercostal muscles after skin incision. A C-1 tapered needle attached to a 6-0 prolene suture (Ethicon Inc., Bridgewater, N.J.) was passed through the mid-ventricle below the left anterior descending coronary artery (LAD) and tied off to induce MI. The prolene suture was used to suture the ribs together and seal the chest wall incisions, and the skin was closed using adhesive glue (3M). The mice then were warmed on a heating pad until recovery. Sham-operated mice underwent the same procedure including hypothermic anesthesia, but not LAD ligation.
(§2) Neonatal mice were weighed and injected daily with either saline, 100 mg/kg dimethyl succinate (Sigma), 100 mg/kg dimethyl malonate (Sigma), or 100 μg/kg Atpenin A5 (Enzo Life Sciences). Dimethyl succinate and dimethyl malonate were dissolved in saline. Stock solution of Atpenin A5 at 0.1 mg/ml was initially prepared by dissolving in DMSO (Sigma) and then further diluted with saline before injection. Saline was used as a vehicle control for all experiments.
Transthoracic echocardiography was performed by using a Visual Sonics 770 ultrasonograph with a 25-MHz transducer (Visual Sonics, Toronto) as described previously^19. Mice were lightly anesthetized with 1% isoflurane and maintained on a heated platform. Two-dimensionally guided M-mode images from a parasternal long axis (PLAX) of the left ventricle (LV) were acquired at the tip of the papillary muscles. Wall thickness and chamber diameters were measured in both diastole and systole. Fractional shortening was calculated as (LVDd−LVDs)/LVDd×100, where LVDd is LV diameter in diastole and LVDs is LV diameter in systole. Ejection fraction was calculated as [(7.0/(2.4+LVDd)(LVDd)^3−(7.0/(2.4+LVDs)(LVDs)^3/(7.0/(2.4+LVDd)(LVDd)^3×100 and LV mass was calculated by using the formula [1.05×((Posterior Walldiastole+Anterior Walldiastole+LVDd)^3−(LVDd)^3)]. All parameters were measured over at least three consecutive cycles.
We injected dimethyl malonate (100 mg/kg, daily) in neonatal mice directly after birth for 2 weeks with an MI performed once the mice reached P7. We then analyzed the hearts following injury to determine whether malonate results in prolongation of the neonatal regenerative window (FIG. 10A).

cardiomyocytes = assay: Immunostaining (pH3, Aurora B), WGA and trichrome staining after MI in P7 mice; conditions: vs controls
Excerpt: We then analyzed the hearts following injury to determine whether malonate results in prolongation of the neonatal regenerative window (FIG. 5A). To examine whether malonate stimulates cardiomyocyte proliferation, we performed MI in 7-day-old mice and analyzed their hearts at 7 days post-MI by immunostaining for markers of proliferation.
as §1, §2
Hearts were harvested and fixed in 4% paraformaldehyde (PFA) in PBS solution overnight at 4° C., processed for paraffin embedding, and sectioned in intervals. Masson's trichrome staining was performed according to the manufacture's protocol (Newcomer Supply, Middleton, WI). Scar size measurements were quantified from at least 3 sections of the heart from ligature to apex. ImageJ was used to quantify the fibrotic scar, and the average scar area for each heart was plotted.
We injected dimethyl malonate (100 mg/kg, daily) in neonatal mice directly after birth for 2 weeks with an MI performed once the mice reached P7.

[2] = MI at P7 (n = 8), echo 21 days post-MI (P7D21)
[3] = sham at P7 (SH, n = 6), echo at day 21 (P7D21)
[4] = MI at P7, Atpenin A5 100 μg/kg daily, 7 days post-MI
[5] = MI at P7, Atpenin A5 100 μg/kg daily, 21 days post-MI

SDH, sequence (P31040 43-664 partner): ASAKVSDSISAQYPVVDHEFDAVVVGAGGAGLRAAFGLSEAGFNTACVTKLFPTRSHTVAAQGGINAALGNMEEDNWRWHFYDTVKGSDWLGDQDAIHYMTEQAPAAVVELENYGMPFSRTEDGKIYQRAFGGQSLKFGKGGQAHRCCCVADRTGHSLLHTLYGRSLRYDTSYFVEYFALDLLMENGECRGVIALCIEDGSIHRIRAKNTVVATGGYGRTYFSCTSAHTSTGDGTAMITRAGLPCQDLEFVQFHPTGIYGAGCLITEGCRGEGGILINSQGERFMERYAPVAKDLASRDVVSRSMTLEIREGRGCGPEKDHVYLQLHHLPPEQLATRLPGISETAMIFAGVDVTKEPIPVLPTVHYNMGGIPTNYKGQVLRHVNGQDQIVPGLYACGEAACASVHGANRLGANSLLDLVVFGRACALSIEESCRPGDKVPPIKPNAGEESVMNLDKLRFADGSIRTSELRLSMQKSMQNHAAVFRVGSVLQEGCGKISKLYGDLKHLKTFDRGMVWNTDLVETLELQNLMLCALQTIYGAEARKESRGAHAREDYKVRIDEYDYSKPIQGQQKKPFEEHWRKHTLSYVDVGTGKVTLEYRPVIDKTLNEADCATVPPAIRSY
SDH, sequence (P21912 29-280): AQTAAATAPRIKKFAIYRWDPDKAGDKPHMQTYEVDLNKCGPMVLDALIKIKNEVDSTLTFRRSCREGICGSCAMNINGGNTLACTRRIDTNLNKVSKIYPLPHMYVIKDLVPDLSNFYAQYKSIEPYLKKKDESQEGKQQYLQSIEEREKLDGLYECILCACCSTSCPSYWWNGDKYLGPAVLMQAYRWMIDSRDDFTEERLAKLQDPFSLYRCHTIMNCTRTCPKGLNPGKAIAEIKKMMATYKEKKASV
SDH, sequence (Q99643 30-169): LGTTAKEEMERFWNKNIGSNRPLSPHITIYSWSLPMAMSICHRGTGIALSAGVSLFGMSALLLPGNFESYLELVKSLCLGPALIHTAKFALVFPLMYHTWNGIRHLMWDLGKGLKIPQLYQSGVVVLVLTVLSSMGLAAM
SDH, sequence (O14521 57-159): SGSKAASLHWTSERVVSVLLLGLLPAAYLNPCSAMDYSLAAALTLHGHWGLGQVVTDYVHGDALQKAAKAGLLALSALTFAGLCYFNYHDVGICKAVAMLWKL

For `COc1[nH]c(=O)c(C(=O)[C@@H](C)C[C@H](C)[C@@H](Cl)CCl)c(O)c1OC` [Atpenin A5], the “inhibition of SDH” value (SDH) is listed as “potent inhibitor of SDH”, the “% EF (Ejection Fraction)” value [1, 2] is listed as 49.676 ± 2.072% and the “% FS (Fractional Shortening)” value [1, 2] is listed as 24.642 ± 1.227%. For the same compound, the “LV Mass (Left Ventricular Mass, Anatomical Weight)” value [1, 2] was 54.203 ± 7.978 mg, the “LV Vol; d (Left Ventricular Volume; diastole)” value [1, 2] was 50.033 ± 6.416 µL and the “LV Vol; s (Left Ventricular Volume; systole)” value [1, 2] was 25.290 ± 3.427 µL. For the same compound, the “LVAWD (Left Ventricle Anterior Wall Thickness Diastole)” value [1, 2] was 0.525 ± 0.023 mm, the “LVAWS (Left Ventricle Anterior Wall Thickness Systole)” value [1, 2] was 0.644 ± 0.032 mm and the “LVIDD (Left Ventricle Internal Diameter Diastole)” value [1, 2] was 3.438 ± 0.167 mm. For the same compound, the “LVIDS (Left Ventricle Internal Diameter Systole)” value [1, 2] was 2.592 ± 0.132 mm, the “LVPWD (Left Ventricle Posterior Wall Thickness Diastole)” value [1, 2] was 0.521 ± 0.025 mm and the “LVPWS (Left Ventricle Posterior Wall Thickness Systole)” value [1, 2] was 0.643 ± 0.027 mm. The “cardiac function by echocardiography” value ([1]; MI at P7, Atpenin A5 100 μg/kg daily, 3 weeks post-MI) was “restoration of cardiac function”, the “% EF (Ejection Fraction)” value [1, 3] was 51.652 ± 3.984% and the “% FS (Fractional Shortening)” value [1, 3] was 25.773 ± 2.586%. The “LV Mass (Left Ventricular Mass, Anatomical Weight)” value [1, 3] was 42.822 ± 4.210 mg, the “LV Vol; d (Left Ventricular Volume; diastole)” value [1, 3] was 39.614 ± 7.039 µL and the “LV Vol; s (Left Ventricular Volume; systole)” value [1, 3] was 19.979 ± 4.374 µL. For the same compound, the “LVAWD (Left Ventricle Anterior Wall Thickness Diastole)” value [1, 3] was 0.493 ± 0.042 mm, the “LVAWS (Left Ventricle Anterior Wall Thickness Systole)” value [1, 3] was 0.615 ± 0.041 mm and the “LVIDD (Left Ventricle Internal Diameter Diastole)” value [1, 3] was 3.100 ± 0.229 mm. For the same compound, the “LVIDS (Left Ventricle Internal Diameter Systole)” value [1, 3] was 2.319 ± 0.221 mm, the “LVPWD (Left Ventricle Posterior Wall Thickness Diastole)” value [1, 3] was 0.536 ± 0.027 mm and the “LVPWS (Left Ventricle Posterior Wall Thickness Systole)” value [1, 3] was 0.648 ± 0.030 mm. The “percentage of cardiomyocytes undergoing cytokinesis (Aurora B staining)” value (cardiomyocytes; [4]) was “significant increase”, the “percentage of cardiomyocytes undergoing mitosis (pH3 staining)” value (cardiomyocytes; [4]) was “significant increase” and the “myocardial regeneration (trichrome staining)” value (cardiomyocytes; [5]) was “myocardial thickness at the infarct zone”. The “scar size (trichrome staining, ImageJ)” value (cardiomyocytes; [5]) was “significant reduction in scar size”.
For `COC1=C(OC)C(=O)C(CCCCCCCCCC[P+](c2ccccc2)(c2ccccc2)c2ccccc2)=C(C)C1=O` [MitoQ], the “cardiac function by echocardiography (EF and FS)” value ([1]; MI at P7, MitoQ 10 mg/kg intraperitoneally daily for 2 weeks after birth, vs controls) was “no improvement in cardiac function” and the “cardiomyocyte mitosis (pH3 immunostaining)” value (cardiomyocytes; MI at P7, MitoQ 10 mg/kg intraperitoneally daily for 2 weeks after birth, 7 days post-MI) was “significant increase in cardiomyocyte mitosis”.
